Measured values from PMC12562681, “Targeting a Tau Kinase Cdk5, Cyclin-Dependent Kinase: A Blood-Based Diagnostic Marker and Therapeutic Earmark for Alzheimer’s Disease” (Biomolecules, 2025).
Like-named read-outs stand apart in the source and are kept apart here. Peptide text beside a SMILES is read from it.

Columns and labels:
[1] = system: SH-SY5Y cells; type: cell-based; details: triplicate
Description: (§1) SH-SY5Y and HEK 293 cells were purchased from NCCS, Pune, India, and were maintained in Ham’s F12 (cat. no. 21700075) and Dulbecco’s Modified Eagle Medium (DMEM, cat. no. 12800017) nutrient media (Gibco, Waltham, MA, USA), respectively, supplemented with 10% (v/v) Fetal Bovine Serum (FBS, cat. no. 10270106) and 1% antibiotic–antimycotic solution (cat. no. CC4003010L, CELL clone, New Delhi, India). The SH-SY5Y cells used in the experiment were of passage number 42–46. Cells were maintained as a monolayer culture at 37 °C with 5% CO2 and 95% relative humidity. Potential contamination in all cells was assessed through STR profiling (DNA Forensic Laboratory Private Limited, New Delhi, India).
Aggregated Aβ25–35 was employed to induce neurotoxicity in SH-SY5Y cells due to its ability to replicate the physiological and biological characteristics of Aβ-amyloid, known to mediate neurotoxic effects and contribute to neuronal cell damage. The effect of peptide on neurotoxicity caused by aggregated Aβ25–35 was assessed via MTT assay. Cells were seeded in 96-well plates at a density of 1 × 10^4 cells per 100 μL per well. Cells were cultured for 24 h and then treated with 20 µM retinoic acid for differentiation. The culture medium was routinely replaced every alternate day for a period of seven days. A stock solution of 20 mM Aβ25–35 was prepared by dissolving 2.12 mg of synthesized Aβ25–35 in 100 µL of 1× PBS and allowed to aggregate at 37 °C for 7 days. Cells were treated with 20 µM aggregated Aβ25–35, along with different concentrations of the peptide YCWS (2 µM, 5 µM, 10 µM, 15 µM, and 20 µM) for 24 h, 48 h, and 72 h. After completion of the treatment duration, cell viability was determined using the MTT assay as described above.

[2] = molecular target: T1, Cdk5 (Homo sapiens, UniProt Q00535); test: Binding study of peptide by SPR (Ni-NTA chip, immobilized recombinant Cdk5); details: recombinant Cdk5 on Ni-NTA sensor chip, peptide 0.4, 0.6 and 1 µM, BIA evaluation 3.0, read-out: dissociation constant (KD)
T1 construct: host or cells: E. coli BL21
T1 sequence (Q00535 whole entry): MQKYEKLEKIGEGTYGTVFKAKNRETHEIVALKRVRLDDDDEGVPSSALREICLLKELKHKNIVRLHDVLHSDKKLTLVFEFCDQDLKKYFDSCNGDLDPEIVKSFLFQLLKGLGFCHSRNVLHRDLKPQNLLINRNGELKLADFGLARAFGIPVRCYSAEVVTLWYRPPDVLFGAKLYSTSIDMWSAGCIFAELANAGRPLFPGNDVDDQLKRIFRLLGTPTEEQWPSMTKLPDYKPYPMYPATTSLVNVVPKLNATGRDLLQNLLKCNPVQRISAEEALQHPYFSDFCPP
Protocol: Different concentrations of purified recombinant human Cdk5 and Mcl1 proteins were passed over the respective flow cells, and corresponding response units (RU) were noted. The standard curve was prepared by plotting different concentrations of pure proteins versus the corresponding RU (Figure S1). Serum samples were diluted (1:79) with HBS-EP buffer and passed over the respective flow cell. The RU for each sample was noted, and the concentration of Cdk5 and Mcl1 in the serum sample was derived from their respective standard curves.
The recombinant Cdk5 protein was immobilized on the Ni-NTA sensor chip by passing NiCl2 solution and the protein. Different concentrations of peptide YCWS (0.4 µM, 0.6 µM, and 1 µM) were passed over it, and changes in RU were noted. The association constant (KA) and dissociation constant (KD) values were calculated using the BIA evaluation 3.0 software.

[3] = system: HEK-293 cells; test: Cell cytotoxicity assay in HEK-293 cells (MTT); type: cell-based; details: 24 h, 48 h and 72 h, up to 50 µM, triplicate
Description: as §1
The peptide’s effect was initially assessed using the normal HEK 293 cell line, and the cell viability was determined by the 3-(4,5-dimethylthiazol-2-yl)-2,5-diphenyltetrazolium bromide (MTT) (cat. no. T0793) reduction assay. Cells were seeded in 96-well plates at a density of 5 × 10^3 cells per 100 μL per well. Cells were cultured for 24 h and then treated with different concentrations of peptide, i.e., 10 µM, 20 µM, and 50 µM, for different time intervals (24 h, 48 h, and 72 h). At the end of treatment, 10 μL MTT (5 mg/mL) was added in each well and incubated for 4 h at 37 °C. […] The absorbance value at 572 nm was measured using a microplate reader. […]

[4] = system: SHSY-5Y cells; test: Cytotoxicity of peptide in SHSY-5Y cells; type: cell-based; details: discussion statement, concentration and time not given
[5] = system: Cdk5 mRNA; test: Cdk5 mRNA by RT-PCR in Aβ25–35-treated SH-SY5Y cells; type: cell-based; details: aggregated Aβ25–35 alone; δ-δ CT, GAPDH; triplicate
Description: [36]; Mcl1 forward primer-[NT] and reverse primer-[…] forward primer-[NT] and reverse primer-[NT].

[6] = system: Aβ-amyloid; test: Aβ-amyloid expression by Western blot in Aβ25–35-treated SH-SY5Y cells; type: cell-based; details: aggregated Aβ25–35 alone
Protocol: (§2) The concentration of total protein in cell lysate was measured using the bicinchoninic acid (BCA) assay. Samples were prepared using the 6× protein loading dye and incubated at 95 °C for 15 min. Equal concentrations of cell lysate (50 µg/lane) were fractionated by 10% SDS-PAGE and transferred to PVDF membrane. The membrane was blocked with 5% NFM for 2 h and then probed with their respective primary antibodies: Cdk5 (1:400) and Mcl1 (1:1000), mouse IgG anti-β-amyloid (1:200) (Sc28365), mouse IgG anti-Tau (Tau-46) (1:200) (Santa Cruz Biotechnology Inc., Dallas, TX, USA, Sc32274), rabbit IgG anti-phospho-Tau (Thr181) (1:350) (Cell Signaling Technology, Inc., Danvers, MA, USA, DAF4G), and rabbit antibody IgG anti-β-actin (1:1000) (Cell Signaling Technology, Inc., Danvers, MA, USA). The membranes were incubated with the secondary anti-rabbit and anti-mouse (cat. no. Sc2004, Sc2005) HRP-conjugated antibody (1:4000) at room temperature for 1 h.

[7] = system: Cdk5; test: Cdk5 expression by Western blot in Aβ25–35-treated SH-SY5Y cells; type: cell-based; details: aggregated Aβ25–35, SH-SY5Y
Protocol: as §2

[8] = system: Tau; test: Tau expression by Western blot in Aβ25–35-treated SH-SY5Y cells; type: cell-based; details: aggregated Aβ25–35 alone
Protocol: as §2

[9] = system: phospho-Tau (Thr181); test: p-Tau expression by Western blot in Aβ25–35-treated SH-SY5Y cells; type: cell-based; details: aggregated Aβ25–35 alone
Protocol: as §2

Row | SMILES | cell viability, rescue ([1]; YCWS 2 µM + 20 µM aggregated Aβ25–35, MTT, time of value not stated (24, 48, 72 h tested)) | cell viability, rescue ([1]; YCWS 5 µM + 20 µM aggregated Aβ25–35, MTT, time of value not stated (24, 48, 72 h tested)) | cell viability, rescue ([1]; YCWS 10 µM + 20 µM aggregated Aβ25–35, MTT, time of value not stated (24, 48, 72 h tested)) | cell viability, rescue ([1]; YCWS 15 µM + 20 µM aggregated Aβ25–35, MTT, time of value not stated (24, 48, 72 h tested)) | cell viability, rescue ([1]; YCWS 20 µM ("up to") + 20 µM aggregated Aβ25–35, MTT, p < 0.001 vs Aβ (Mann–Whitney), time of value not stated) | Kd [2] | cytotoxicity, HEK-293 cells [3] | cytotoxicity, SHSY-5Y cells [4] | Cdk5 mRNA expression, fold vs control group [5] | Aβ-amyloid expression [6] | Cdk5 protein expression [7] | tau expression [8] | p-Tau expression [9]
1 | N[C@@H](Cc1ccc(O)cc1)C(=O)N[C@@H](CS)C(=O)N[C@@H](Cc1c[nH]c2ccccc12)C(=O)N[C@@H](CO)C(=O)O [YCWS] (H-YCWS-OH) | 87.28% | 91.47% | 92.20% | 98.27% | 98.55% | 3.94 nM | nontoxic | non-toxic |  |  |  |  | 
2 | CC[C@H](C)[C@H](NC(=O)[C@H](C)NC(=O)CNC(=O)[C@H](CCCCN)NC(=O)[C@H](CC(N)=O)NC(=O)[C@H](CO)NC(=O)CN)C(=O)N[C@H](C(=O)NCC(=O)N[C@@H](CC(C)C)C(=O)N[C@@H](CCSC)C(=O)O)[C@@H](C)CC [Aβ25–35] (H-GSNKGAIIGLM-OH; N-terminus and C-terminus assumed) |  |  |  |  |  |  |  |  | 1.85 fold | increased | increased the expression of Cdk5 | increased | increased
